Some results are limits rather than exact numbers.

The first series deals with pseudoviral particles carrying SARS-CoV-1 S. Nature of the series: microbe, parasite or virus in culture. The conditions noted are these: Severe acute respiratory syndrome coronavirus, 293T/ACE2, read-out: IC50 SARS-CoV-1. Type of series: cell-based.
Consider `CCN(C)C[C@@H](O)COc1cccc(OC[C@H](O)CN(C)CC)c1` [Compound 20], for which the IC50 came to 0.57 µM.

`CN1CCN(C[C@@H](O)COc2cccc(F)c2)CC1` [Compound 59]: the 50% inhibitory concentration (IC50) is greater than 100 µM.

In the case of `CNC[C@@H](O)COc1ccccc1` [Compound 43], the IC50 turned out to be 62.6 µM.

Another series relates to pseudoviral particles carrying VSV-G. Nature of the series: microbe, parasite or virus in culture. Format: cell-based. The note with it: Vesicular stomatitis virus, 293T/ACE2, read-out: IC50 VSV-G.
For `CCN(C)C[C@@H](O)COc1cccc(OC[C@H](O)CN(C)CC)c1` [Compound 20], the half-maximal inhibitory concentration (IC50) is greater than 100 µM.

As for `CN1CCN(C[C@@H](O)COc2cccc(F)c2)CC1` [Compound 59], the half-maximal inhibitory concentration (IC50) is greater than 100 µM.

For the molecule `CNC[C@@H](O)COc1ccccc1` [Compound 43], the half-maximal inhibitory concentration (IC50) is greater than 100 µM.

Tested on in another series: not listed separately
The series is described as follows: Solubility in phosphate-buffered saline.
Conditions: not given
For `Cc1cccc(N2CCN(C[C@@H](O)COc3cc(Br)cc(OC[C@H](O)CN4CCN(c5cccc(C)c5)CC4)c3)CC2)c1` [Compound 31], the “Solubility in phosphate-buffered saline (PBS)” value (from here on “Solubility”) is reported as “b Insoluble in phosphate-buffered saline (PBS)”.

In the case of `Cc1cccc(N2CCN(C[C@@H](O)COc3cccc(OC[C@H](O)CN4CCN(c5cccc(C)c5)CC4)c3)CC2)c1` [Compound 18], the “Solubility” value is “b Insoluble in phosphate-buffered saline (PBS)”.

`O[C@H](CNCc1ccccc1OC(F)(F)F)COc1cccc(OC[C@H](O)CNCc2ccccc2OC(F)(F)F)c1` [Compound 23]: the “Solubility” value was “b Insoluble in phosphate-buffered saline (PBS)”.

Consider `O[C@@H](COc1cc(Br)cc(OC[C@H](O)CN2CCC(O)(c3ccc(Cl)cc3)CC2)c1)CN1CCC(O)(c2ccc(Cl)cc2)CC1` [Compound 32], for which the “Solubility” value is reported as “b Insoluble in phosphate-buffered saline (PBS)”.

In the case of `O[C@H](CNCc1ccc(OC(F)(F)F)cc1)COc1cc(Br)cc(OC[C@H](O)CNCc2ccc(OC(F)(F)F)cc2)c1` [Compound 39], the “Solubility” value is listed as “b Insoluble in phosphate-buffered saline (PBS)”.

Another series concerns pseudoviral particles bearing the Spike glycoprotein from SARS-CoV-2. Nature of the series: microbe, parasite or virus in culture. Type of series: cell-based. The note with it: Severe acute respiratory syndrome coronavirus 2, 293T/ACE2, read-out: IC50 SARS-CoV-2, Table 1; pseudovirus, 293T-ACE2 cells, compounds up to 100 µM.
`CCN(C)C[C@@H](O)COc1cccc(OC[C@H](O)CN(C)CC)c1` [Compound 20]: the concentration for half-maximal inhibition (IC50) came out at 1.18 µM.

`CN1CCN(C[C@@H](O)COc2cccc(F)c2)CC1` [Compound 59]: the IC50 was greater than 100 µM.

`CNC[C@@H](O)COc1ccccc1` [Compound 43]: the 50% inhibitory concentration (IC50) was greater than 100 µM.

The subject of another series is SARS-CoV-2 (Wuhan strain) ectodomain SΔTM trimers.
Assay: not given
The note with it: 0.1 µM labeled Spike; 50 µM compound, 0.3 µM CV3-13, 0.6 µM ACE2; unbound Spike 40% ± 2%.
Consider ACE2, for which the RBD-up conformation occupancy is listed as 67% ± 2%.
